Data from ChEMBL document CHEMBL1137604, “Structure-activity relationship study on the 6-membered heteroaromatic ring system of diphenylpyrazine-type prostacyclin receptor agonists” (Bioorg Med Chem Lett, 2007).

Test system: Plasma
Assay: Inhibition of ADP-induced platelet aggregation in human platelet rich plasma

| Structure (SMILES) | IC50 |
| --- | --- |
| CN(CCCCOCC(=O)O)c1cc(-c2ccccc2)c(-c2ccccc2)cn1 | 1100 nM |
| CN(CCCCOCC(=O)O)c1cc(-c2ccccc2)c(-c2ccccc2)nn1 | 8600 nM |
| CN(CCCCOCC(=O)O)c1nnc(-c2ccccc2)c(-c2ccccc2)n1 | 1300 nM |
| CN(CCCCOCC(=O)O)c1cnc(-c2ccccc2)c(-c2ccccc2)c1 | 800 nM |
| CN(CCCCOCC(=O)O)c1ncc(-c2ccccc2)c(-c2ccccc2)n1 | 800 nM |
| CN(CCCCOCC(=O)O)c1ccc(-c2ccccc2)c(-c2ccccc2)n1 | 200 nM |
